These results are taken from patent US10111854B2, “Synthesis and use of amine-containing flavonoids as potent anti-leishmanial agents” (The Hong Kong Polytechnic University, priority 2014, dated 2018).

Structures can show the parent of a compound that is named as a salt.

Data set [1] has as its system L. amazonensis LV78 promastigotes. Nature of the data set: Anti-promastigote activity (MTS assay), L. amazonensis LV78. In kind it is cell-based. The settings on record: 72 hours. The method in brief: (§1)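 Promastigotes (1×10^5 per well) in Schneider's medium pH 6.9 with 10% FBS, exposed to serial compound concentrations for 72 h at 27 °C. Viability by MTS/PMS reduction over 4 h, OD 490 nm; IC50 derived.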
A general note: Tetrazolium assays rely on reduction of a dye to a coloured formazan, in cell work by metabolically active cells.

The test system of data set [2] is L. major FV1 promastigotes. Briefly: Anti-promastigote activity (MTS assay), L. major FV1. In kind it is cell-based. To be noted: 72 hours. The method in brief: as §1
Data set [3] has as its system L. donovani Ld39 promastigotes. Briefly: Anti-promastigote activity (MTS assay), L. donovani Ld39. Type of data set: cell-based. To be noted: 72 hours. In a few lines:
as §1

Another data set deals with mouse fibroblast (L929). Briefly: Cytotoxicity, L929 fibroblasts. In kind it is cell-based. To be noted: mouse fibroblast L929. On the procedure:
(§2) IC50 values of known antileishmanials and the amine-containing flavonoid monomers of the present invention to promastigotes (L. amazonensis LV78, L major FV1, L. donovani HU3, L. donovani 39), macrophages (Raw 264.7 and PEM) and mouse fibroblast (L929) were determined. The anti-promastigotes activities and cytotoxicity of the amine-containing flavonoid monomers of the invention are shown in Table 1.

Data set [4] has as its system peritoneal elicited macrophages (PEM). Nature of the data set: Cytotoxicity, peritoneal elicited macrophages (PEM). Type of data set: cell-based, mouse.
The test system of data set [5] is L. amazonensis LV78 amastigotes. Nature of the data set: Anti-amastigote activity in infected PEM, L. amazonensis LV78. In kind it is cell-based. To be noted: for IC50: infected PEM, 3 days, Giemsa. The method in brief: (§3)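 Macrophages elicited from mouse peritoneum were allowed to adhere overnight, then infected with late-log promastigotes at a 20:1 ratio at 37 °C. After removal of non-internalized parasites, cells were incubated with compound for 3 days. Amastigote burden was scored microscopically after Giemsa staining.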

Data set [6] can be described thus: Pharmacokinetics of FM05 hydrochloride salt, oral. In kind it is in vivo, Balb/c mice. To be noted: mouse, in vivo, po, 42 mg/kg. On the procedure: Based on the result of the preliminary in vivo study, FM05 hydrochloride salt was selected for further investigation. FM05 hydrochloride salt was dissolved in saline at 4 mg/ml and administered to male balb/c at 42 mg/kg. Blood plasma samples were collected at various time points for pharmacokinetics analysis (n=2 to 3 for each time point).

For data set [7], the system named is L. donovani HU3 promastigotes. Briefly: Anti-promastigote activity (MTS assay), L. donovani HU3. To be noted: 72 hours. Type of data set: cell-based. In a few lines: as §1
Data set [8] can be described thus: Cytotoxicity, L929 fibroblasts. Type of data set: cell-based, mouse. To be noted: mouse. On the procedure: as §2
A short description of data set [9]: Cytotoxicity, peritoneal elicited macrophages (PEM). In kind it is cell-based, mouse. The settings on record: mouse, Cytotoxicity IC50, PEM.
Data set [10] concerns L. donovani HU3 amastigotes. Nature of the data set: Anti-amastigote activity in infected PEM, L. donovani HU3. Type of data set: cell-based. To be noted: infected PEM, 3 days, Giemsa, SSG-sensitive. The method in brief: as §3
Data set [11] is described as follows: Pharmacokinetics study of FM09, FM09h and FM05b, iv and oral. In kind it is in vivo, Balb/c mice. To be noted: 50 mg/kg oral; for bioavailability: Balb/c, mouse, plasma, 10 mg/kg iv, dose-adjusted AUC oral over iv, read-out: Bioavailability (F). How it is done:
Animals were sacrificed at the indicated time point and plasma level of the corresponding flavonoids were determined using LC-MSMS. IC50 of corresponding flavonoids are indicated. Bioavailability (F) was calculated by dividing the dose-adjusted area under curve (AUC) of that of orally-fed over intravenously administered animals.

Data set [12] deals with L. amazonensis and L. donovani HU3 promastigotes and amastigotes. Briefly: Anti-promastigote and anti-amastigote activity of FM09, FM01 and FM05 derivatives. In kind it is cell-based, Leishmania. The settings on record: stage and strain not specified; read-out: IC50, anti-promastigote and anti-amastigote activity (Table 3C). On the procedure:
Derivatives of FM09, FM01 and FM05 were synthesized and their anti-promastigote and anti-amastigote activity were determined (Table 3C). Many amine-containing flavonoid monomers have IC50 less than 5 μM, including FM09a, FM09b, FM09c, FM09e, FM09h, FM09i, FM09k, FM09l, FM01b and FM05b.

Data set [13] has as its system L. braziliensis UA847 amastigotes. Briefly: Anti-amastigote activity in infected PEM, L. braziliensis UA847. In kind it is cell-based. The settings on record: Leishmania braziliensis, 72 h, 3 days, Giemsa, read-out: Anti-amastigote activity IC50, L. baziliensis UA847. On the procedure: (§4) Mouse peritoneal elicited macrophages (PEM) were obtained as previously described (2). A round cover slip (12 mm in diameter) was placed into each well of 24-well culture plate. Mouse PEM were resuspended in supplemented DMEM media containing 10% heat inactivated FBS (v/v), 100 U/mL penicillin and 100 μg/mL streptomycin and seeded into each well at a cell density of 1×10^5 cells per 500 μL. Macrophages were allowed to attach overnight. Non-adherent cells were removed by gentle washing with un-supplemented DMEM media twice. Adherent macrophages were infected with late-log promastigotes at a parasite-to-macrophage ratio of 20:1 overnight at 37° C. with 5% CO2. Non-internalized promastigotes were removed by washing twice with un-supplemented DMEM media. Infected macrophages were further incubated in 500 μL of supplemented DMEM media in the presence or absence of FM for 72 hours at 37° C. After incubation, cover slips were stained with Giemsa and the percentage of macrophages infected and number of amastigotes per 100 macrophages was enumerated.
(§5) PEM cells were infected with late-log promastigotes (L. amazonensis LV78, L. braziliensis UA847, L. donovani HU3, L. donovani 39) for 24 hr at 37° C. Infected macrophages were then treated with various antileishmanials and incubated for 3 days at 37° C. After 3 days, the cover slips were stained with Giemsa. The number of amastigotes per 100 macrophages were determined and used to calculate IC50 values.

Data set [14] deals with L. donovani Ld39 amastigotes (SSG-resistant). Briefly: Anti-amastigote activity in infected PEM, L. donovani Ld39. The settings on record: Leishmania donovani, 72 h; infected PEM, 3 days, Giemsa; SSG-resistant. Type of data set: cell-based. The method in brief:
as §3

The test system of data set [15] is amastigotes (L. amazonensis LV78, L. braziliensis UA847, L. donovani HU3, L. donovani 39). Nature of the data set: Anti-amastigote activity, strain not given. In kind it is cell-based. To be noted: strain not specified; visceral and cutaneous Leishmania; read-out: IC50 against amastigotes. On the procedure: as §4, §5

As for `O=c1cc(-c2ccc(OCCN3CCN(Cc4ccncc4)CC3)cc2)oc2ccccc12` [FM01.HCl], the IC50 (as a rule, the point on the concentration scale where inhibition reaches its midpoint) in data set [1] is 12.6 ± 0.9 µM; in data set [2], 6.7 ± 1.9 µM; in data set [3], 1.3 ± 0.3 µM; in the data set with mouse fibroblast (L929) it was 33.7 µM; in data set [4] it was 55.9 µM; in [5], more than 9 µM.
Molecule `Cl.O=c1cc(-c2ccc(OCCC3CCN(Cc4ccncc4)CC3)cc2)oc2ccccc12` [FM05.HCl] showed an IC50 in data set [1] of 6 ± 0.5 µM. In data set [2], 3.5 ± 0.9 µM corresponded to half-maximal inhibition (IC50). Further, the IC50 in data set [3] came to 1.2 ± 0.5 µM. Moreover, the IC50 in data set [4] turned out to be 23.8 µM. For the same molecule, the IC50 in data set [5] (listed as FM05.HCI) was found to be 6.9 ± 0.9 µM. Also, in data set [6], the “AUC(0-7 hr)” value was 83089 ng·min/mL; the “Cmax (obs)” value came to 312.8 ng/mL; the “Half-life (Distribution and absorption)” value is 0.417 h; the “Half-life (Elimination)” value is 3.37 h. In data set [6], the “MRT (area)” value came to 5.35 h and the “Tmax (obs)” value was determined as 2 h.
Consider `COc1ccnc(CN2CCC(CCOc3ccc(-c4cc(=O)c5ccccc5o4)cc3)CC2)c1OC` [FM05b, 2-(4-(2-(1-((3,4-dimethoxypyridin-2-yl)methyl)piperidin-4-yl)ethoxy)phenyl)-4H-chromen-4-one], for which the IC50 came to 0.57 ± 0.17 µM in data set [1] (Leishmania amazonensis); 0.89 ± 0.33 µM in data set [7] (Leishmania donovani); 10.6 ± 1.13 µM in data set [8]; 5.1 µM in data set [9]; 0.3 ± 0.06 µM in [5] (Leishmania amazonensis, 72 h); 0.7 ± 0.37 µM in data set [10] (Leishmania donovani, 72 h). Moreover, the IC50 in data set [12] was less than 5 µM. Also, the “Time post oral feeding at which plasma level remains higher than respective IC50” value in [11] was found to be 420 min. Further, the bioavailability (as a rule, the share of a dose that reaches the circulation, judged against a reference dose that is usually intravenous) in [11] was found to be 36%.
For `O=c1cc(-c2ccc(OCCOCCN(Cc3ccccn3)Cc3ccccn3)cc2)oc2ccccc12` [FM09.HCl], the IC50 came to 0.7 µM in data set [1]; 1.2 ± 0.3 µM in data set [2]; 0.2 ± 0.1 µM in data set [7]; 0.5 ± 0.1 µM in data set [3]; 20.2 ± 8.4 µM in the data set with mouse fibroblast (L929); 0.4 µM in data set [5]. In data set [10], the IC50 was 1.8 µM.
On to `COc1ccnc(CN(CCOCCOc2ccc(-c3cc(=O)c4ccccc4o3)cc2)Cc2nccc(OC)c2OC)c1OC` [FM09aHCl], for which the IC50 in data set [1] came to 0.77 ± 0.19 µM; in data set [7], 0.99 ± 0.19 µM; in the data set on mouse fibroblast (L929), 12.9 ± 2.4 µM; in data set [5] it was 0.35 ± 0.01 µM; in data set [10], 0.5 ± 0.02 µM.
The matching figures for `O=c1cc(-c2ccc(OCCOCCN(Cc3cccnc3)Cc3cccnc3)cc2)oc2ccccc12` [FM09b.HCl]: 8.08 ± 1.99 µM, 12.9 ± 7.32 µM, 75.1 ± 13.6 µM, more than 10 µM and more than 10 µM.
On to `O=c1cc(-c2ccc(OCCOCCN(Cc3ncccc3F)Cc3ncccc3F)cc2)oc2ccccc12` [FM09c.HCl], for which the IC50 in data set [1] worked out at 2.66 ± 0.3 µM; in data set [7], 4.97 ± 1.04 µM; in the data set on mouse fibroblast (L929) it was 39 ± 6.1 µM; in [5], 1.45 ± 0.31 µM; in [10] it was 2.9 ± 1.49 µM.
For the molecule `Cc1c(OCC(F)(F)F)ccnc1CN(CCOCCOc1ccc(-c2cc(=O)c3ccccc3o2)cc1)Cc1nccc(OCC(F)(F)F)c1C` [FM09h, 2-(4-(2-(2-(bis((3-methyl-4-(2,2,2-trifluoroethoxy)pyridin-2-yl)methyl)amino)ethoxy)ethoxy)phenyl)-4H-chromen-4-one], the IC50 was 0.47 ± 0.07 µM in data set [1] (Leishmania amazonensis); 1.09 ± 0.09 µM in data set [7] (Leishmania donovani); 3.62 ± 0.51 µM in data set [8]; 6.4 µM in [9]; 0.29 ± 0.05 µM in data set [5] (Leishmania amazonensis, 72 h); 0.3 ± 0.04 µM in data set [10] (Leishmania donovani, 72 h). Further, the IC50 in [12] is less than 5 µM. For the same molecule, in data set [11], the “Time post oral feeding at which plasma level remains higher than respective IC50” value was 180 min. The bioavailability in [11] worked out at 5%.
Regarding `O=c1cc(-c2ccc(OCCOCCNCc3ccccn3)cc2)oc2ccccc12` [FM09m.HCl], the IC50 in data set [1] is 14.3 ± 3.3 µM; in data set [7], 18.2 ± 2.13 µM; in data set [4], 28.3 µM; in data set [5], 7.86 ± 2.15 µM; in data set [10], more than 10 µM.
As for `O=c1cc(-c2ccc(OCCOCCN(Cc3ccccc3)Cc3ccccc3)cc2)oc2ccccc12` [FM19, 2-(4-(2-(2-(dibenzylamino)ethoxy)ethoxy)phenyl)-4H-chromen-4-one], the IC50 in data set [1] (Leishmania amazonensis) is 17.5 ± 3.2 µM; in data set [2] (Leishmania major), 21.6 ± 4.2 µM; in data set [7] (Leishmania donovani) it was 9.8 ± 2.5 µM; in data set [3] (Leishmania donovani), more than 100 µM; in [8], 55.1 ± 7.2 µM; in [5] (Leishmania amazonensis, 72 h), 1.3 ± 0.6 µM. In addition, the half-maximal inhibitory concentration (IC50) in data set [13] was less than 0.37 µM; in data set [10] (Leishmania donovani, 72 h), more than 10 µM; in [14], more than 10 µM; in [15], less than 5 µM. For the same molecule, the “Selective index (a)/(b)” value in [5] (IC50 RAW264.7 over IC50 L. amazonensis LV78 amastigotes) is more than 76.9.
